Results on three compounds are retold here after article PMC3337405 (Cancer Chemotherapy and Pharmacology, 2012).

The test system of data set [1] is QT interval. As to conditions: ref 16 (AC220), 17 (MLN518), 18 (sorafenib); cited from earlier work.
For data set [2] the following is noted: human, in vivo.
Description: (§2) Blood samples for PK analysis were collected predose and 0.5, 1, 2, 3, 4, 8, 12, and 24 h post dose on days 1 and 3 at the same time as ECG assessments. […] Noncompartmental analysis (WinNonlin™ version 5.2, Pharsight, Sunnyvale, California) was performed to determine the following PK parameters: C max, T max, minimum (trough) plasma concentration over a dosing interval (C min), and AUC calculated using a trapezoidal method. For moxifloxacin, the AUC from time 0 to the last measurable concentration sampling time was calculated (AUC0–tlast).
Data set [3] has as its system healthy volunteers. Kind of data set: Thorough QT/QTc study: QTcF change from baseline on day 3 (12-lead ECG). The class given is in vivo, human. The text has this:
This study was a phase I, randomized, double-blind, placebo- and active-controlled, 3-way, parallel-group study conducted at a single center in the United States and approved by the Arkansas Research Medical Testing, LLC, Institutional Review Board. The design followed the recommendations of the International Conference on Harmonisation of Technical Requirements for Registration of Pharmaceuticals for Human Use (ICH) E14 guideline on “The Clinical Evaluation of QT/QTc Interval Prolongation and Proarrhythmic Potential for Non-Antiarrhythmic Drugs” [19]. As such, the trial included a concurrent positive control group and addressed intrinsic variability by conducting multiple ECGs at baseline and during the study. The study was conducted according to the ethical principles of the Declaration of Helsinki, and written informed consent was obtained from each subject during screening.
The treatment regimen was selected to achieve maximal plasma exposure for QTc evaluation while minimizing the risks of excessive or prolonged exposure in healthy volunteers.
The baseline comparison was from day −1 to day 3 at matched time points.
The following hypothesis was tested to confirm that the study had sufficient assay sensitivity: [drawing 3] [drawing 4] where μmoxi(t) was the mean QTcF change from baseline observed following moxifloxacin 400 mg at time point t. If the null hypothesis was rejected, the study had sufficient sensitivity. The Simes method was used for the protection of an experiment-wise 5% type I error [22, 23]. With the Simes method, the original P values corresponding to 0.5, 1, 2, 3, and 4 h post baseline are ordered increasingly, that is, P 1 ≤ P 2 ≤ P 3 ≤ P 4 ≤ P 5. After the Simes correction, the P values were 5P 1, 5P 2/2, 5P 3/3, 5P 4/4, and P 5 respectively. If any of the 5 adjusted P values were <.05, assay sensitivity was claimed. Only the participants who completed all scheduled doses of study medication from day 1 to day 3 and had at least 1 ECG on day −1 (baseline) and at least 1 ECG on day 3 (time-matched day 3 data for the time-matched analysis) were included in the assay sensitivity test.
Electrocardiogram measurements at each time point were calculated as an average of 3 separate ECG extractions or replicates. (Each extraction was the mean of 3 beats.) If fewer than 3 measurements were available, the available samples were averaged (i.e., a minimum of 1 measure was required). For each subject, the time-matched baseline value was subtracted from the QT/QTc intervals to determine the change from baseline in QT/QTc intervals for that subject. The 2 null hypotheses described above were tested in a linear mixed-effect model with a compound symmetry covariance structure. The model included the baseline measure as covariate and treatment, time, and the treatment-by-time interaction as fixed effects, where time was a categorical variable and subject was a random effect.
The time-matched analysis was conducted on the QTcF change from the time-matched baseline as recommended by the ICH E14 guideline. Although modeling change from the time-matched baseline was the primary analysis, the change from the time-averaged baseline was also analyzed using the same model. For the averaged baseline, each triplicate ECG collection was averaged first, and then the averaged baseline was calculated based on all the averaged triplicate ECG and unscheduled ECGs.
(§1) Standard triplicate 12-lead ECGs were obtained at 9 time points over 24 h at […] and at 2 time points on day 1. Electrocardiogram analysis was performed at a blinded central reading facility (ERT, East Bridgewater, NJ) in digital format, with paper tracings obtained and archived immediately on site. Vital signs were assessed daily. Clinical laboratory parameters were assessed at baseline and at the end of study. Self-reported adverse events were continuously recorded from the first study treatment (placebo, day −1) through the end of study on day 4.

Data set [4] relates to healthy volunteers. Kind of data set: Concentration–QT linear random-effects model. Format: in vivo, human. As to conditions: moxifloxacin. The text has this:
Baseline QTcF was included in the model as a covariate. […] This exploratory analysis was applied to both the change from the time-matched baseline and the change from time-averaged baseline.

In data set [5] the test system is healthy volunteers. The data set can be described thus: Outlier analysis of QTc and other ECG parameters, ECG morphology. The class given is in vivo, human. The note with it: for QTcB >30 ms, time-matched change from baseline, participants: text: 30- to 60-ms category. The protocol: Outlier analysis for QTc was also exploratory because this study was not powered to detect individuals with genetic sensitivity to potential QT-prolonging drugs. The nonspecific outlier criterion was a change from baseline in QTc interval of 30–60 ms.
as §1

Data set [6] has as its system healthy volunteers. Kind of data set: Adverse events and discontinuations. The class given is in vivo, human. The protocol:
Electrocardiogram analysis was performed at a blinded central reading facility (ERT, East Bridgewater, NJ) in digital format, with paper tracings obtained and archived immediately on site. Vital signs were assessed daily. Clinical laboratory parameters were assessed at baseline and at the end of study. Self-reported adverse events were continuously recorded from the first study treatment (placebo, day −1) through the end of study on day 4.

For data set [7] the following is noted: moxifloxacin; cited from earlier work.
Data set [8] relates to QTcF interval. As to conditions: cited from earlier work.
Data set [9] in a line: Plasma pharmacokinetics, noncompartmental analysis. As to conditions: moxifloxacin 400 mg overencapsulated, day 3.
Description: as §2
[10] abbreviates: moxifloxacin 400 mg, 1 h post dose on day 3.

Several values for one entry are separate records, joined by “and”; a condition that tells them apart may be missing. Equal values may be shown once.

Regarding `CNC(=O)c1cc(Oc2ccc(NC(=O)Nc3ccc(Cl)c(C(F)(F)F)c3)cc2)ccn1` [sorafenib], in [1], the “effect on QT interval in clinical trials” value is “induce prolongation of the QT interval”.

On to `CN(C(=O)c1ccccc1)[C@@H]1C[C@H]2O[C@@](C)([C@@H]1O)n1c3ccccc3c3c4c(c5c6ccccc6n2c5c31)C(=O)NC4` [CGP62221], for which, in data set [2], the “time of peak concentrations post dose” value was in the range of 3 to 4 h. Also, in data set [2] (po, 75 mg), the “AUC0-12h, mean (SD)” value is 7848.2 (1579.9) ng * hour/mL and the “AUC0-24h, mean (SD)” value is recorded as 36 486.5 (9769.7) ng × hour/mL.

By Cmax is commonly meant the peak of the concentration-time curve. The term Tmax denotes the time at which the peak concentration occurs. `COc1c(N2C[C@@H]3CCCN[C@@H]3C2)c(F)cc2c(=O)c(C(=O)O)cn(C3CC3)c12` [Moxifloxacin, reference compound]: in [3] (moxifloxacin 400 mg, 1 h post dose), the “upper limit of the 95% CI of QTcF prolongation from time-matched baseline” value is 14.9 ms. In data set [3] (setting [10]), the “lower bound of 95% CI, QTcF change from time-averaged baseline compared with placebo” value is 7.6 ms; the “lower bound of the 1-sided 95% CI of QTcF prolongation from time-matched baseline” value was 6.4 ms and > 5 ms; the “maximum mean QTcF change from time-averaged baseline compared with placebo” value was 10.2 ms. Further, in [3] (moxifloxacin single 400-mg dose, 1 h post dose on day 3), the “maximum mean QTcF prolongation from time-matched baseline compared with placebo” value was determined as 10.7 ms. Also, the “slope of QT change from baseline with increasing plasma concentration” value in data set [4] (QT) came to 4.0. The “slope of QTcB change from baseline with increasing plasma concentration” value in [4] (QTcB) worked out at 2.6. Also, in data set [4] (QTcF), the “slope of QTcF change from baseline with increasing plasma concentration” value amounted to 3.2 ms per μg/mL. Further, in [5] (12-lead ECG), the “new U-wave abnormalities” value came to 1 case and the “new post baseline T-wave abnormalities” value came to 4 participants. In data set [5] (safety set), the “PR increase ≥25% and resultant PR >200 ms, participants” value was 0 no. (%); the “QRS increase ≥25% and resultant QRS >100 ms, participants” value is listed as 0 no. (%); the “QTcB >60 ms, time-matched change from baseline, participants” value was 0 no. (%); the “QTcF >30 ms, time-matched change from baseline, participants” value was 0 no. (%). In addition, in data set [5] (safety set), the “QTcF >60 ms, time-matched change from baseline, participants” value was 0 no. (%); the “QTcI >30 ms, time-matched change from baseline, participants” value is given as 0 no. (%); the “QTcI >60 ms, time-matched change from baseline, participants” value is listed as 0 no. (%); the “RR decrease ≥25% and resultant RR <600 ms, participants” value is 0 no. (%). In addition, in data set [5] (safety set), the “RR increase ≥25% and resultant RR >1,200 ms, participants” value is 0 no. (%); the “QTcB >30 ms, time-matched change from baseline, participants” value is recorded as 7 (15.9) no. (%). In addition, the “QTcB New >450 ms, participants” value in [5] (safety set, post baseline, text: between 450 and 480 ms) is 1 (2.3%) no. (%). Also, the “QTcB >30 ms, time-matched change from baseline, participants” value in data set [5] (safety set, listed as moxifloxacin) was 7 (15.9%) no. (%). Also, in data set [6] (randomized set), the “Discontinued, main cause Adverse event(s)” value was 0 (0.0) no. (%) and the “Discontinued, main cause Death” value is on record as 0 (0.0) no. (%). Besides, in [6] (safety set, all grade 1/2), the Abdominal pain is listed as 0 (0.0) no. (%), the Arthralgia is 0 (0.0) no. (%), the Diarrhea is given as 1 (2.3) no. (%) and the Dizziness is on record as 1 (2.3) no. (%). For the same compound, in data set [6] (safety set, all grade 1/2), the Dry mouth was 0 (0.0) no. (%), the Dysmenorrhea was 0 (0.0) no. (%), the Dyspepsia is 1 (2.3) no. (%) and the Eructation is 0 (0.0) no. (%). In addition, in data set [6] (safety set, all grade 1/2), the Flatulence was 1 (2.3) no. (%), the Flushing is recorded as 0 (0.0) no. (%), the Headache is given as 4 (9.1) no. (%) and the Hiccups is given as 0 (0.0) no. (%). In [6] (safety set, all grade 1/2), the Hot flushes is listed as 0 (0.0) no. (%), the Nausea was 5 (11.4) no. (%), the Pollakiuria was 1 (2.3) no. (%) and the Rash is recorded as 1 (2.3) no. (%). In addition, in data set [6] (safety set, all grade 1/2), the Salivary hypersecretion is recorded as 0 (0.0) no. (%), the Sexually transmitted disease is reported as 0 (0.0) no. (%) and the Vomiting is recorded as 1 (2.3) no. (%). Also, in data set [6] (safety set, all grade 1/2, 4-day evaluation period), the “Participants with adverse events” value is given as 9 (20.5) no. (%). Further, the Tachycardia in data set [6] (safety set, grade 1, midostaurin-arm cases occurred during placebo run-in (day −1)) is recorded as 0 (0.0) no. (%). Moreover, the Cmax previously reported in [7] was 2830 ng/mL. Moreover, in [8] (5 other thorough QTc studies), the “mean slope estimates, concentration–QTc” value is 2.5 ms per μg/mL and 2.4 ms per μg/mL and 3.3 ms per μg/mL and 3.5 ms per μg/mL and 4.3 ms per μg/mL. Also, the “effect on QTc intervals” value in [8] is reported as “prolong QTc intervals in a dose-dependent manner”. In addition, in [8] (previous studies), the “expected effect on the QTcF interval” value is 8 to 13 ms. Further, the peak concentration (Cmax) in data set [9] (human, plasma, oral, 400 mg, geometric mean) stood at 2500 ng/mL. The highest concentration (Cmax) in data set [9] (human, plasma, oral, 400 mg, mean) was found to be 2540 ng/mL. Also, in data set [9] (human, plasma, oral, 400 mg, median), the highest concentration (Cmax) came out at 2460 ng/mL. In addition, the Tmax in data set [9] (human, plasma, oral, 400 mg, Tmax, median) is 2.1 h. Besides, in data set [9], the “Cmax, mean” value turned out to be 2544 ng/mL.
